PubChem BioAssay (NCI)
“And” between values parts separate entries of the source, which are not always exact repeats. Equal entries are not always repeated.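 Briefly, cells in 96-well plates were exposed to five compound concentrations for 48 h, and endpoints were estimated by linear interpolation. GI50 = concentration required for 50% inhibition of growth. TGI denotes the concentration required for complete inhibition of growth.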

Key:
Test in all cases: inhibition of tumour cell growth, NCI panel, 48 h
UACC-62 melanoma = system: UACC-62 melanoma
SK-MEL-5 melanoma = system: SK-MEL-5 melanoma
SF-539 CNS = system: SF-539 CNS
OVCAR-5 ovarian = system: OVCAR-5 ovarian
RXF 393 renal = system: RXF 393 renal
NCI/ADR-RES ovarian = system: NCI/ADR-RES ovarian
COLO 205 colon = system: COLO 205 colon
CCRF-CEM leukemia = system: CCRF-CEM leukemia
HCC-2998 colon = system: HCC-2998 colon
EKVX NSCLC = system: EKVX NSCLC

## Nc1nc(-c2ccc(Cl)cc2)nc2c1sc(=S)n2-c1ccccc1
UACC-62 melanoma
  GI50: 4.32 µM
  TGI: 22.6 µM
SK-MEL-5 melanoma
  GI50: 2.91 µM
  TGI: 10.1 µM
SF-539 CNS
  GI50: 1.62 µM
  TGI: 3.29 µM
OVCAR-5 ovarian
  GI50: 4.98 µM
  TGI: 20.5 µM
RXF 393 renal
  GI50: 2.51 µM
  TGI: 6.19 µM
NCI/ADR-RES ovarian
  GI50: 3.7 µM
  TGI: 19.8 µM
COLO 205 colon
  GI50: 7.44 µM
  TGI: > 100 µM
CCRF-CEM leukemia
  GI50: 27 µM
  TGI: > 100 µM
HCC-2998 colon
  GI50: 7.52 µM
  TGI: 50.2 µM
EKVX NSCLC
  GI50: 2.75 µM
  TGI: 14.7 µM

## O=C(c1ccco1)c1c(C(F)(F)F)n([O-])c2cc(F)c(F)cc2[n+]1=O
UACC-62 melanoma
  GI50: 0.242 µM
  TGI: 0.76 µM
SK-MEL-5 melanoma
  GI50: 0.256 µM
  TGI: 1.23 µM
SF-539 CNS
  GI50: 0.329 µM
  TGI: 0.679 µM
OVCAR-5 ovarian
  GI50: 0.67 µM
  TGI: 2.38 µM
RXF 393 renal
  GI50: 0.193 µM
  TGI: 0.531 µM
NCI/ADR-RES ovarian
  GI50: 0.0648 µM
  TGI: 0.179 µM
COLO 205 colon
  GI50: 0.229 µM
  TGI: 3.06 µM
CCRF-CEM leukemia
  TGI: > 23 µM
HCC-2998 colon
  TGI: 0.0145 µM
EKVX NSCLC
  GI50: 0.57 µM
  TGI: 1.26 µM

## NCc1ccc(-c2nc(-c3ccc(Cl)c(O)c3)c(-c3ccncc3)[nH]2)cc1
UACC-62 melanoma
  GI50: 2.53 µM
  TGI: > 25 µM
SK-MEL-5 melanoma
  GI50: > 15.4 µM
  TGI: > 25 µM
SF-539 CNS
  GI50: > 25 µM
  TGI: > 25 µM
OVCAR-5 ovarian
  GI50: > 25 µM
  TGI: > 25 µM
RXF 393 renal
  GI50: > 19.2 µM
  TGI: > 25 µM
NCI/ADR-RES ovarian
  GI50: > 25 µM
  TGI: > 25 µM
COLO 205 colon
  GI50: > 25 µM
  TGI: > 25 µM
CCRF-CEM leukemia
  GI50: > 25 µM
  TGI: > 25 µM
HCC-2998 colon
  GI50: > 25 µM
  TGI: > 25 µM
EKVX NSCLC
  GI50: > 25 µM
  TGI: > 25 µM

## CC1(C)[C@H](O)[C@H](F)C[C@@]2(C)Oc3ccc(C(=O)Nc4ccc5c(c4)NC(=O)C54CCN(CCCCC#N)CC4)cc3C[C@H]12
UACC-62 melanoma
  GI50: 0.0308 µM
  TGI: 1.13 µM and 1.12 µM
SK-MEL-5 melanoma
  TGI: 2.9 µM and 1.55 µM
SF-539 CNS
  GI50: 0.00698 µM
  TGI: 4.77 µM and 2.5 µM
OVCAR-5 ovarian
  GI50: 5.41 µM and 5.82 µM
  TGI: 34.5 µM
RXF 393 renal
  GI50: 0.00279 µM
NCI/ADR-RES ovarian
  GI50: 42.9 µM
  TGI: > 100 µM
COLO 205 colon
  GI50: 1.24 µM and 1.14 µM
  TGI: 3.42 µM and 3.63 µM
CCRF-CEM leukemia
  GI50: 0.00949 µM
  TGI: 5.98 µM and 6.98 µM
HCC-2998 colon
  GI50: 6.76 µM and 2.71 µM
  TGI: 15 µM
EKVX NSCLC
  GI50: 4.01 µM and 4.25 µM
  TGI: 22.1 µM

## N#Cc1c(NC(=O)c2ccccc2F)sc2c1CCCC2
UACC-62 melanoma
  GI50: 18.1 µM
  TGI: > 25 µM
SK-MEL-5 melanoma
  GI50: > 22 µM
  TGI: > 25 µM
SF-539 CNS
  GI50: > 25 µM
  TGI: > 25 µM
OVCAR-5 ovarian
  GI50: > 25 µM
  TGI: > 25 µM
RXF 393 renal
  GI50: > 25 µM
  TGI: > 25 µM
NCI/ADR-RES ovarian
  GI50: 11.5 µM
  TGI: > 25 µM
COLO 205 colon
  GI50: 22.2 µM
  TGI: > 25 µM
CCRF-CEM leukemia
  GI50: > 25 µM
  TGI: > 25 µM
HCC-2998 colon
  GI50: 13.4 µM
  TGI: > 25 µM
EKVX NSCLC
  GI50: > 25 µM
  TGI: > 25 µM

## S=C(NCc1ccc2c(c1)OCO2)N1CCN(c2ncnc3c2oc2ccccc23)CC1
UACC-62 melanoma
  GI50: 14.1 µM
  TGI: > 100 µM
SK-MEL-5 melanoma
  GI50: 0.575 µM
  TGI: 3.28 µM
SF-539 CNS
  GI50: > 100 µM
  TGI: > 100 µM
OVCAR-5 ovarian
  GI50: > 100 µM
  TGI: > 100 µM
RXF 393 renal
  GI50: > 100 µM
  TGI: > 100 µM
NCI/ADR-RES ovarian
  GI50: 4.69 µM
  TGI: > 100 µM
COLO 205 colon
  GI50: 66.1 µM
  TGI: > 100 µM
CCRF-CEM leukemia
  GI50: > 82.7 µM
  TGI: > 100 µM
HCC-2998 colon
  GI50: > 100 µM
  TGI: > 100 µM
EKVX NSCLC
  GI50: 3.5 µM
  TGI: > 100 µM

## COc1ccc(OC)c(Cc2cnc3nc(N)nc(N)c3c2C)c1
UACC-62 melanoma
  TGI: > 71.2 µM
SK-MEL-5 melanoma
  TGI: 93.8 µM
SF-539 CNS
  TGI: 20.3 µM
OVCAR-5 ovarian
  TGI: 48.1 µM
RXF 393 renal
  TGI: 21.9 µM
NCI/ADR-RES ovarian
  TGI: > 100 µM
COLO 205 colon
  TGI: > 52.6 µM
CCRF-CEM leukemia
  TGI: 29.4 µM
HCC-2998 colon
  TGI: 16.4 µM
EKVX NSCLC
  TGI: > 83.3 µM

## O=C(c1cc(Cc2n[nH]c(=O)c3ccccc23)ccc1F)N1CCN(C(=O)C2CC2)CC1
UACC-62 melanoma
  GI50: 67.9 µM and 76.2 µM
  TGI: > 100 µM
SK-MEL-5 melanoma
  GI50: 27.6 µM and 29.1 µM
  TGI: > 100 µM
SF-539 CNS
  GI50: > 100 µM
  TGI: > 100 µM
OVCAR-5 ovarian
  GI50: > 100 µM
  TGI: > 100 µM
RXF 393 renal
  GI50: 52.1 µM and > 41.4 µM
  TGI: > 100 µM
NCI/ADR-RES ovarian
  GI50: > 100 µM
  TGI: > 100 µM
COLO 205 colon
  GI50: > 100 µM
  TGI: > 100 µM
CCRF-CEM leukemia
  GI50: > 100 µM
  TGI: > 100 µM
HCC-2998 colon
  GI50: 53.5 µM and > 100 µM
  TGI: > 100 µM
EKVX NSCLC
  GI50: 18 µM and 77.7 µM
  TGI: > 100 µM

## c1ccc(C2CCCCC2)c(OCCCCCN2CCNCC2)c1
UACC-62 melanoma
  GI50: 1.87 µM
  TGI: 3.62 µM
SK-MEL-5 melanoma
  GI50: 1.45 µM
  TGI: 2.81 µM
SF-539 CNS
  GI50: 3.65 µM
  TGI: 18.1 µM
OVCAR-5 ovarian
  GI50: 3.46 µM
  TGI: 13 µM
RXF 393 renal
  GI50: 1.77 µM
  TGI: 4.02 µM
NCI/ADR-RES ovarian
  GI50: 7.07 µM
  TGI: 29.2 µM
COLO 205 colon
  GI50: 1.45 µM
  TGI: 3.31 µM
CCRF-CEM leukemia
  GI50: 2.4 µM
  TGI: 7.9 µM
HCC-2998 colon
  GI50: 1.32 µM
  TGI: 2.7 µM
EKVX NSCLC
  GI50: 4.07 µM
  TGI: 19.9 µM

## Cc1cc(O)c2c3c(ccc2c1)C(=O)c1c(O)cccc1C3=O
UACC-62 melanoma
  TGI: 13.6 µM
SK-MEL-5 melanoma
  TGI: 1.4 µM
SF-539 CNS
  TGI: 50.5 µM
OVCAR-5 ovarian
  TGI: > 100 µM
RXF 393 renal
  TGI: > 100 µM
NCI/ADR-RES ovarian
  TGI: > 100 µM
COLO 205 colon
  TGI: 12.4 µM
CCRF-CEM leukemia
  TGI: > 100 µM
HCC-2998 colon
  TGI: > 100 µM
EKVX NSCLC
  TGI: > 100 µM

## COc1cc(C(=O)/C=C/c2c(C(F)(F)F)nc3ccccn23)cc(OC)c1OC
UACC-62 melanoma
  GI50: 1.66 µM
  TGI: 3.32 µM
SK-MEL-5 melanoma
  GI50: 1.62 µM
  TGI: 3.23 µM
SF-539 CNS
  GI50: 1.63 µM
  TGI: 3.22 µM
OVCAR-5 ovarian
  GI50: 1.98 µM
  TGI: 4.02 µM
RXF 393 renal
  GI50: 1.87 µM
  TGI: 3.91 µM
NCI/ADR-RES ovarian
  GI50: 1.41 µM
  TGI: 21.8 µM
COLO 205 colon
  GI50: 2.11 µM
  TGI: 4.36 µM
CCRF-CEM leukemia
  GI50: 4.15 µM
  TGI: > 100 µM
HCC-2998 colon
  GI50: 1.83 µM
  TGI: 3.38 µM
EKVX NSCLC
  GI50: 2.37 µM
  TGI: 6.78 µM

## COCCOCCOCCOCCOC(=O)OC[n+]1ccc(NC(=NCCCCCCOc2ccc(Cl)cc2)NC#N)cc1
UACC-62 melanoma
  GI50: 9.97 µM
  TGI: 22.2 µM
SK-MEL-5 melanoma
  GI50: 1.43 µM
  TGI: 11.6 µM
SF-539 CNS
  GI50: < 0.01 µM
  TGI: 13.7 µM
OVCAR-5 ovarian
  GI50: 3.98 µM
  TGI: 22 µM
RXF 393 renal
  GI50: 7.44 µM
  TGI: 22.3 µM
NCI/ADR-RES ovarian
  GI50: < 0.0395 µM
  TGI: 20.2 µM
COLO 205 colon
  GI50: 0.231 µM
  TGI: 15.5 µM
CCRF-CEM leukemia
  GI50: < 0.01 µM
  TGI: 15 µM
HCC-2998 colon
  GI50: 0.564 µM
  TGI: 20.5 µM
EKVX NSCLC
  GI50: 3.93 µM
  TGI: 14.9 µM
